The target of assay [1] is biotinylated human Gal-3 (hGal-3) (Homo sapiens, UniProt P17931). As to the kind of experiment: Competitive binding assay: biotinylated hGal-3 binding to microplate-adsorbed asialofetuin (ASF), spectrophotometric. The procedure, abridged: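 Serially diluted compounds competed with asialofetuin on the plate for biotinylated human Gal-3 during a 3 h incubation at 4° C. Streptavidin-peroxidase with ABTS gave the spectrophotometric signal. IC50 values were averaged over repeat runs.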
Sequence of biotinylated human Gal-3 (hGal-3) (P17931 whole entry): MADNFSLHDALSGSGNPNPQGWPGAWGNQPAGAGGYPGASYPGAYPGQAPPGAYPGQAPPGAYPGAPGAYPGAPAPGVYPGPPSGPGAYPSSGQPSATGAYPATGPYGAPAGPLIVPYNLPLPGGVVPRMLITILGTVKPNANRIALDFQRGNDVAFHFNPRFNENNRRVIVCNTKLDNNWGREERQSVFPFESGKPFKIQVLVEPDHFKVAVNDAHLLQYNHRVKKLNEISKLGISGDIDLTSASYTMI

In assay [2] the target is human Gal-1 (hGal-1) (Homo sapiens, UniProt P09382). As to the kind of experiment: Competitive binding assay: biotinylated hGal-1 binding to microplate-adsorbed asialofetuin (ASF), spectrophotometric. To be noted: hGal-1 binding to asialofetuin; Table 15; R and S epimers of selected Examples also listed; read-out: IC50 (Galectin-1 inhibition). The essentials:
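Spectrophotometric competition readout with ABTS after streptavidin-peroxidase (80 ng/mL, 1 h, 4 °C) detection of bound biotinylated hGal-1.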

Setting [3] is: Table 12, hGal-3, read-out: IC50 (Gal-3 inhibition).
Where [4] appears, read: Gal-3 inhibition, Table 5, read-out: IC50.
Where [5] appears, read: Table 9, hGal-3, read-out: IC50 (Gal-3 inhibition).

Read-outs that look alike come from different tables or passages of the source.

Sequence of human Gal-1 (hGal-1) (P09382 whole entry): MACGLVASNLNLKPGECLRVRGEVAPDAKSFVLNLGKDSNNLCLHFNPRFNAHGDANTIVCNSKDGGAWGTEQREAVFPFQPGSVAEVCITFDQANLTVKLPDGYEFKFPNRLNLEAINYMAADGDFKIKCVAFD

In the case of `CO[C@@H]1[C@@H](n2cc(-c3cc(F)c(F)c(F)c3)nn2)[C@@H](O)[C@@H](CO)O[C@H]1S[C@@H](C(=O)N1CCC(F)(F)CC1)C1(O)CCC2(CCC2)CC1` [Example 2.69.226R.I., (R)-1-(4,4-Difluoropiperidin-1-yl)-2-(((2S,3R,4S,5R,6R)-5-hydroxy-6-(hydroxymethyl)-3-methoxy-4-(4-(3,4,5-trifluorophenyl)-1H-1,2,3-triazol-1-yl)tetrahydro-2H-pyran-2-yl)thio)-2-(7-hydroxyspiro[3.5]nonan-7-yl)ethan-1-one], the IC50 in assay [1] (Table 13, hGal-3, read-out: IC50 (Gal-3 inhibition)) stood at 570 nM; in assay [2] it was 1640 nM.

Turning to `O=C(C(S[C@@H]1O[C@H](CO)[C@H](O)[C@H](n2cc(-c3cc(F)c(F)c(F)c3)nn2)[C@H]1O)C(O)Cc1ccccc1)N1CCC1` (stereo partly drawn) [Example 2.64.206., 1-(Azetidin-1-yl)-2-(((2S,3R,4S,5R,6R)-3,5-dihydroxy-6-(hydroxymethyl)-4-(4-(3,4,5-trifluorophenyl)-1H-1,2,3-triazol-1-yl)tetrahydro-2H-pyran-2-yl)thio)-3-hydroxy-4-phenylbutan-1-one], the IC50 in assay [1] (Gal-3 inhibition, Table 7, read-out: IC50) was 710 nM; in assay [2], 5940 nM.

Turning to `CO[C@@H]1[C@@H](n2cc(-c3cc(F)c(F)c(F)c3)nn2)[C@@H](O)[C@@H](CO)O[C@H]1SC(C(=O)N(C)C12CC(C1)C2)C1(O)CCC(F)(F)CC1` (stereo partly drawn) [Example 2.44.247.I., N-(Bicyclo[1.1.1]pentan-1-yl)-2-(4,4-difluoro-1-hydroxycyclohexyl)-2-(((2S,3R,4S,5R,6R)-5-hydroxy-6-(hydroxymethyl)-3-methoxy-4-(4-(3,4,5-trifluorophenyl)-1H-1,2,3-triazol-1-yl)tetrahydro-2H-pyran-2-yl)thio)-N-methylacetamide], the IC50 turned out to be 50 nM in assay [1] (setting [3]) and 30 nM in assay [2].

In the case of “2-(4,4-Difluoro-1-hydroxycyclohexyl)-2-(((2S,3R,4S,5R,6R)-3,5-dihydroxy-6-(hydroxymethyl)-4-(4-(3,4,5-trifluorophenyl)-1H-1,2,3-triazol-1-yl)tetrahydro-2H-pyran-2-yl)thio)-N-(2-fluoro-2-methylpropyl)-N-methylacetamide [Example 2.44.222.]”, the IC50 amounted to 130 nM in assay [1] (setting [4]) and 350 nM in assay [2].

With `CCN(C(=O)C(S[C@@H]1O[C@H](CO)[C@H](O)[C@H](n2cc(-c3cc(F)c(F)c(F)c3)nn2)[C@H]1OC)C1(O)CCC(F)(F)CC1)C1CCOCC1` (stereo partly shown) [Example 2.44.257.I.], the IC50 in assay [1] (Table 10, hGal-3, read-out: IC50 (Gal-3 inhibition)) is 70 nM; in assay [2] it was 180 nM.

In the case of `CN(CC(C)(C)F)C(=O)C(S[C@@H]1O[C@H](CO)[C@H](O)[C@H](n2cc(-c3cc(F)c(F)c(F)c3)nn2)[C@H]1O)C1(O)CCCCC1` (stereo partly drawn) [Example 2.39.222., 2-(((2S,3R,4S,5R,6R)-3,5-Dihydroxy-6-(hydroxymethyl)-4-(4-(3,4,5-trifluorophenyl)-1H-1,2,3-triazol-1-yl)tetrahydro-2H-pyran-2-yl)thio)-N-(2-fluoro-2-methylpropyl)-2-(1-hydroxycyclohexyl)-N-methylacetamide], the IC50 in assay [1] (setting [4]) is 50 nM; in assay [2], 120 nM.

Take `CNC(=O)C(S[C@@H]1O[C@H](CO)[C@H](O)[C@H](n2cc(-c3cc(F)c(F)c(F)c3)nn2)[C@H]1OC)C1(O)CCC(F)(F)CC1` (stereo partly drawn) [Example 2.44.248.I., 2-(4,4-Difluoro-1-hydroxycyclohexyl)-2-(((2S,3R,4S,5R,6R)-5-hydroxy-6-(hydroxymethyl)-3-methoxy-4-(4-(3,4,5-trifluorophenyl)-1H-1,2,3-triazol-1-yl)tetrahydro-2H-pyran-2-yl)thio)-N-methylacetamide]: the IC50 in assay [1] (setting [3]) was 490 nM; in assay [2], 730 nM.

As to `CO[C@@H]1[C@@H](n2cc(-c3cc(F)c(F)c(F)c3)nn2)[C@@H](O)[C@@H](CO)O[C@H]1S[C@H](C(=O)N1CCC(F)(F)CC1)C1(O)CCC(F)(F)CC1` [Example 2.44.226S.I., (S)-2-(4,4-difluoro-1-hydroxycyclohexyl)-1-(4,4-difluoropiperidin-1-yl)-2-(((2S,3R,4S,5R,6R)-5-hydroxy-6-(hydroxymethyl)-3-methoxy-4-(4-(3,4,5-trifluorophenyl)-1H-1,2,3-triazol-1-yl)tetrahydro-2H-pyran-2-yl)thio)ethan-1-one], the IC50 in assay [1] (setting [3]) was found to be 50 nM; in assay [2], 70 nM.

In the case of `CO[C@@H]1[C@@H](n2cc(-c3cc(F)c(F)c(F)c3)nn2)[C@@H](O)[C@@H](CO)O[C@H]1S[C@@H](C(=O)N(C)c1ccccn1)C1(O)CCC(F)(F)CC1` [Example 2.41.233R.I.], the IC50 in assay [1] (setting [5]) amounted to 7240 nM; in assay [2], 7100 nM.

As for `O=C(C(S[C@@H]1O[C@H](CO)[C@H](O)[C@H](n2cc(-c3cc(F)c(F)c(F)c3)nn2)[C@H]1O)C1(O)CCOCC1)N1CCCCC1` (stereo partly drawn) [Example 2.41.208., 2-(((2S,3R,4S,5R,6R)-3,5-Dihydroxy-6-(hydroxymethyl)-4-(4-(3,4,5-trifluorophenyl)-1H-1,2,3-triazol-1-yl)tetrahydro-2H-pyran-2-yl)thio)-2-(4-hydroxytetrahydro-2H-pyran-4-yl)-1-(piperidin-1-yl)ethan-1-one], the IC50 in assay [1] (Gal-3 inhibition, Table 4, read-out: IC50) came out at 90 nM; in assay [2] it was 220 nM.

Take “2-(4,4-Difluoro-1-hydroxycyclohexyl)-2-(((2S,3R,4S,5R,6R)-3,5-dihydroxy-6-(hydroxymethyl)-4-(4-(3,4,5-trifluorophenyl)-1H-1,2,3-triazol-1-yl)tetrahydro-2H-pyran-2-yl)thio)-1-(piperidin-1-yl)ethan-1-one [Example 2.44.208.]”: the IC50 in assay [1] (setting [4]) was found to be 70 nM; in assay [2], 210 nM.

`CO[C@@H]1[C@@H](n2cc(-c3cc(F)c(F)c(F)c3)nn2)[C@@H](O)[C@@H](CO)O[C@H]1S[C@@H](C(=O)N1CCC(F)(F)CC1)C1(O)CCC(F)(F)CC1` [Example 2.44.226R.I., (R)-2-(4,4-difluoro-1-hydroxycyclohexyl)-1-(4,4-difluoropiperidin-1-yl)-2-(((2S,3R,4S,5R,6R)-5-hydroxy-6-(hydroxymethyl)-3-methoxy-4-(4-(3,4,5-trifluorophenyl)-1H-1,2,3-triazol-1-yl)tetrahydro-2H-pyran-2-yl)thio)ethan-1-one]: the IC50 worked out at 890 nM in assay [1] (setting [3]) and 5730 nM in assay [2].

For the molecule `CN(C(=O)[C@H](S[C@@H]1O[C@H](CO)[C@H](O)[C@H](n2cc(-c3cc(F)c(F)c(F)c3)nn2)[C@H]1O)C1(O)CCOCC1)c1ccccn1` [Example 2.41.233R.], the IC50 stood at 8500 nM in assay [1] (setting [5]) and 9800 nM in assay [2].

Regarding `CCN(C)C(=O)[C@H](S[C@@H]1O[C@H](CO)[C@H](O)[C@H](n2cc(-c3cc(F)c(F)c(F)c3)nn2)[C@H]1O)C1(O)CCN(C(=O)OC)CC1` [Example 2.50.203R., (R)-Methyl 4-(1-(((2S,3R,4S,5R,6R)-3,5-dihydroxy-6-(hydroxymethyl)-4-(4-(3,4,5-trifluorophenyl)-1H-1,2,3-triazol-1-yl)tetrahydro-2H-pyran-2-yl)thio)-2-(ethyl(methyl)amino)-2-oxoethyl)-4-hydroxypiperidine-1-carboxylate], the IC50 in assay [1] (Table 8, hGal-3, read-out: IC50 (Gal-3 inhibition)) was found to be 4450 nM; in assay [2] it was 10500 nM.
